Results as given in patent US20210147507A1, “METHODS TO AUGMENT OR ALTER SIGNAL TRANSDUCTION” (Bellicum Pharmaceuticals, Inc., priority 2017, published 2021).
Read-outs that look alike come from different tables or passages of the source.

Assays:
cells = test: Rimiducid amount needed in vitro for effective signaling of cells; type: cell-based
Procedure: This equates to 14-140 μg/L or ˜0.014-0.14 mg/kg ([…]). The dosage may vary according to the application, and may, in certain examples, be more in the range of 0.1-10 nM, or in the range of 50-150 nM, 10-200 nM, 75-125 nM, 100-500 nM, 100-600 nM, 100-700 nM, 100-800 nM, or 100-900 nM.

[1] = system: CD3+ΔCD19+ iCasp9 T cells / GvHD; test: Phase I clinical trial of allodepleted T cells transduced with iCasp9 after haploidentical stem cell transplantation; type: in vivo, human
Text: This example presents results of a phase 1 clinical trial using an alternative suicide gene strategy. Briefly, donor peripheral blood mononuclear cells were co-cultured with recipient irradiated EBV-transformed lymphoblastoid cells (40:1) for 72 hrs., allodepleted with a CD25 immunotoxin and then transduced with a retroviral supernatant carrying the iCasp9 suicide gene and a selection marker (ΔCD19); ΔCD19 allowed enrichment to >90% purity via immunomagnetic selection.
Patients developing grade 1 GvHD were treated with 0.4 mg/kg AP1903 as a 2-hour infusion.
Three patients received iCasp9^+ T cells after haplo-CD34^+ stem cell transplantation (SCT), at dose levels between about 1×10^6 to about 3×10^6 cells/kg.

[2] = cited from earlier work; for safety and tolerability (in words): healthy volunteers
[3] = system: HPAC pancreatic cancer cells; test: T cell anti-tumor assay: PSCA CAR-T cells with iM-X cocultured with HPAC-RFP cells (IncuCyte); type: cell-based, human; details: 1 nM
Procedure: The HPAC PSCA^+ tumor cells were stably labeled with nuclear-localized RFP protein using the NucLight™ Red Lentivirus Reagent (Essen Bioscience, 4625). To set up the coculture, 4000 HPAC-RFP cells were seeded per well of 96-well plates in 100 μl of CTL medium without IL-2 for at least 4 hours to allow tumor cells to adhere. After transduction with the appropriate retrovirus and having been allowed to rest for at least 7 days in culture, T were seeded according to various E:T ratios in the HPAC-RFP-containing 96-well plates. […] Each plate was set up in duplicates, one plate to monitor with the IncuCyte and one plate for supernatant collection for ELISA assay on day 2. The plates were centrifuged for 5 min at 400×g and placed inside the IncuCyte (Dual Color Model 4459) to monitor red fluorescence (and green fluorescence if T cells were labeled with GFP-Ffluc) every 2-3 hours for a total of 7 days at 10× objective. Image analysis was performed using the “HPAC-RFP-_TcellsGFP_10×_MLD” processing definition. On day 7, HPAC-RFP cells were analyzed using the “Red Object Count (1/well)” metric. Also on day 7, 0 or 10 nM of suicide drug were added to each well of the coculture and placed back in the IncuCyte to monitor T cell elimination. On day 8, Tcell-GFP cells were analyzed using the “Total Green Object Integrated Intensity” metric. […]

[4] = biological target: wild-type phenylalanine 36 FKBP12 (Homo sapiens, UniProt P62942); details: cited from earlier work
wild-type phenylalanine 36 FKBP12, sequence (P62942 whole entry): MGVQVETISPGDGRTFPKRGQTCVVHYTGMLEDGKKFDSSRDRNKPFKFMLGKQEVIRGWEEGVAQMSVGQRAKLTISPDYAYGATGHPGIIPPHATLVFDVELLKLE

CC[C@H](C(=O)N1CCCC[C@H]1C(=O)O[C@H](CCc1ccc(OC)c(OC)c1)c1cccc(OCC(=O)NCCNC(=O)COc2cccc([C@@H](CCc3ccc(OC)c(OC)c3)OC(=O)[C@@H]3CCCCN3C(=O)[C@@H](CC)c3cc(OC)c(OC)c(OC)c3)c2)c1)c1cc(OC)c(OC)c(OC)c1 (relative stereo) [rimiducid, 2-Piperidinecarboxylic acid, 1-[(2S)-1-oxo-2-(3,4,5-trimethoxyphenyl)butyl]-, 1,2-ethanediylbis [imino(2-oxo-2,1-ethanediyl)oxy-3,1-phenylene[(1R)-3-(3,4-Dimethoxyphenyl)propylidene]] ester, [2S-[1(R*),2R*[S*[S*[1(R*),2R1]]]]]-(9C1)]
amount needed for effective signaling, converted (cells): 0.014 to 0.14 mg/kg | amount needed in vitro for effective signaling of cells (cells): 10 to 100 nM | amount needed for effective signaling, converted (cells; MW 1412 Da): 14 to 140 µg/L | time to resolution of skin and liver GvHD ([1]; after rimiducid administration): ≤ 24 h | ablation of CD3+ΔCD19+ cells ([1]; within 30 minutes of infusion, two patients with grade I/II GvHD): > 90% | further reduction of CD3+ΔCD19+ cells ([1]; within 24 hours): further log reduction | duration of the adverse event ([2]; 1.0 mg/kg): 32 min | onset of the adverse event after start of infusion ([2]; 1.0 mg/kg): 3 min | mean Cmax ([2]; 0.01-1.0 mg/kg dose range, infused IV over 2 hours): 10 to 1275 ng/mL | plasma levels versus dose ([2]; 0.01-1.0 mg/kg): directly proportional to dose | adverse event considered possibly related ([2]; 1 volunteer at 1.0 mg/kg): vasodilatation | plasma level, % of maximal concentration ([2]; 0.5 hours post-dose): 18% | plasma level, % of maximal concentration ([2]; 0.5 hours post-dose, listed as Rimiducid): approximately 18% | plasma level, % of maximal concentration ([2]; 2 hours post-dose): ~7% | plasma level, % of maximal concentration ([2]; 10 hours post-dose): ~1% | well-tolerated dose ([2]; Phase I study): up to 1 mg/kg | incidence of adverse events ([2]; following each treatment): very low | safety and tolerability (in words) ([2]; 0.01-1.0 mg/kg): No significant adverse effects | safety and tolerability (in words) ([2]; 0.01-1.0 mg/kg, listed as AP1903): No serious adverse events | pharmacokinetic profile (in words) ([2]; human, in vivo): favorable pharmacokinetic profile | effect on cell growth of tumor or T cell ([3]; Not Transduced (NT) primary T cells): did not affect the cell growth | effect on T cell efficacy ([3]; T cells expressing the inducible chimeric signaling polypeptide): augmented T cell efficacy | binding to FKBP12 (in words) [4]: not able to bind
